# According to patent US4588729A, “Treating convulsions with dihydrouracil derivatives” (Kyowa Hakko Kogyo Co., Ltd., priority 1984, dated 1986):
# Key:
# [1] = test system: male dd-strain mice; test: Maximal electroshock seizure test; assay type: in vivo; details: Mus musculus, po, 1 h, P.O., shock 60 minutes after administration, suppression of tonic extensor in at least 3 of 5 mice, read-out: MED for anticonvulsive action, Maximal electroshock seizure test
# Experimental: (1) Maximal electroshock seizure test
# Groups of mice, each consisting of 5 male dd-strain mice having a weight of 20±1 g were orally administered with some of said compounds and 60 minutes thereafter, an electric current of 2,000 V, 50 mA was passed to both eyes of the mouse for 0.2 seconds to observe occurrence of tonic extensor. Suppression of tonic extensor occurrence on at least three mice was regarded as effective, and MED (minimum effective dose) for suppressing the convulsion was determined.
# [2] = test system: male dd-strain mice; test: Pentetrazol-induced seizure test; assay type: in vivo; details: Mus musculus, po, P.O., 120 mg/kg pentetrazol s.c., suppression of clonic seizure in at least 3 of 5 mice, read-out: MED for anticonvulsive action, Pentetrazol-induced seizure test
# Experimental: (2) Pentetrazol-induced seizure test
# Groups of mice, each consisting of 5 male dd-strain mice having a weight of 20±1 g were subcutaneously administered by 120 mg/kg of pentetrazol, and occurrence of clonic seizure was observed. Suppression of clonic seizure occurrence on at least three mice was regarded as effective, and MED was determined.
# [3] = Acute toxicity test; details: mouse, in vivo, po; P.O., mice, suspension in 0.3% CMC, 7 days after administration
# [4] = test system: male Carworth Farm mice; test: Anticonvulsive action: MES (maximum electroconvulsive procedure) and subcutaneous pentylenetetrazole seizure tests, combined evaluation; assay type: in vivo; details: Mus musculus, sc, dose levels 30, 100, 300 (600) mg/kg, MES and 85 mg/kg s.c. pentylenetetrazole tests, read-out: Evaluation (anticonvulsant activity class)
# Experimental: The present test was performed in male Carworth Farm mice. All compounds were tested at least 3 dose levels (30, 100, 300 mg/kg) with a fourth dose of 600 mg/kg being performed when there was sufficient quantity available. The vehicles used to solubilize each compound were 30% aqueous polyethylene glycol solution (Compound Nos. 31 to 38, 45, 47 and 48) and 0.9% saline (Compound Nos. 44 and 46). The following two tests were performed. MES (Maximum electroconvulsive procedure) Maximal electroshock seizures were elicited with a 60 cycle alternating current of 50 mA intensity (5-7 times that necessary to elicit minimal electroshock seizures) delivered for 0.2 sec via corneal electrodes. A drop of 0.9% saline was instilled in the eye prior to application of the electrodes in order to prevent the death of the animal. Abolition of the hind limb tonic extension component of the seizure was defined as protection and results were expressed as: [formula] First, 85 mg/kg of pentylenetetrazole (produces seizures in greater than 95% of mice) was administered as a 0.5% solution subcutaneously in the posterior midline. […] Failure to observe even a threshold seizure (a single episode of clonic spasms of at least 5 sec duration) was defined as protection and the results were expressed as: [formula] (2) Evaluation method All results were classified into one of the following three evaluation standard: .circle.1 Anticonvulsant activity at 100 mg/kg or less .circle.2 Anticonvulsant activity at doses greater than 100 mg/kg, or anticonvulsant activity at 100 mg/kg not reinforced by similar activity at 300 mg/kg .circle.3 No anticonvulsant activity at doses up to and including 300 mg/kg
Compound,minimal effective dose [1] [mg/kg],minimal effective dose [2] [mg/kg],LD50 at 168 h [3] [mg/kg],minimal effective dose [4] [mg/kg]
"Cc1cc(Cl)ccc1N1CCC(=O)N(C)C1=O [Compound 9, 1-(2-methyl-4-chlorophenyl)-3-methyl-dihydrouracil]",150,200,> 300,
"CN1CCC(=O)N(c2ccccc2Cl)C1=O [Compound 29, 3-(2-chlorophenyl)-1-methyl-dihydrouracil]",150,150,> 300,
"CN1CCC(=O)N(c2ccccc2N)C1=O.Cl [Compound 46, 3-(2-aminophenyl)-1-methyl-dihydrouracil hydrochloride]",,,,> 100
"CN1C(=O)CCN(c2ccc(N)cc2)C1=O.Cl [Compound 44, 1-(4-aminophenyl)-3-methyl-dihydrouracil hydrochloride]",,,,≤ 100
"CN1CCC(=O)N(c2ccccc2[N+](=O)[O-])C1=O [Compound 45, 1-methyl-3-(2-nitrophenyl)-dihydrouracil]",,,,> 100
"CN1CCC(=O)N(c2cccc(Cl)c2Cl)C1=O [Compound 34, 3-(2,3-dichlorophenyl)-1-methyl-dihydrouracil]",150,300,> 300,≤ 100
"CN1CCC(=O)N(c2cccc3ccccc23)C1=O [Compound 47, 1-methyl-3-α-naphthyl-dihydrouracil]",100,200,> 300,≤ 100
"CN1CCC(=O)N(c2ccc(Cl)cc2Cl)C1=O [Compound 36, 3-(2,4-dichlorophenyl)-1-methyl-dihydrouracil]",100,200,> 300,≤ 100
"CN1C(=O)CCN(c2ccc(C(F)(F)F)cc2)C1=O [Compound 33, 3-methyl-1-(4-trifluoromethylphenyl)-dihydrouracil]",100,300,> 300,≤ 100
"CN1CCC(=O)N(c2ccccc2C(F)(F)F)C1=O [Compound 35, 1-methyl-3-(2-trifluoromethylphenyl)-dihydrouracil]",,,,> 100
"O=C1CCN(c2ccc(Cl)cc2)C(=O)N1 [Compound 32, 1-(4-chlorophenyl)-dihydrouracil]",,,,> 100
"CCOC(=O)c1ccccc1N1C(=O)CCN(C)C1=O [Compound 48, 3-(2-ethoxycarbonylphenyl)-1-methyl-dihydrouracil]",,,,≤ 100
"CN1C(=O)CCN(c2ccc(Cl)cc2)C1=O [Compound 3, 1-(4-chlorophenyl)-3-methyl-dihydrouracil]",75,200,> 300,
"CN1C(=O)CCN(c2cccc(C(F)(F)F)c2)C1=O [Compound 7, 3-methyl-1-(3-trifluoromethylphenyl)-dihydrouracil]",100,100,> 1000,
"CN1C(=O)CCN(c2ccc(Cl)cc2Cl)C1=O [Compound 31, 1-(2,4-dichlorophenyl)-3-methyl-dihydrouracil]",100,100,> 300,≤ 100
"CN1CCC(=O)N(c2ccccc2F)C1=O [Compound 38, 3-(2-fluorophenyl)-1-methyl-dihydrouracil]",,,,> 100
"CN1CCC(=O)N(c2cc(Cl)ccc2Cl)C1=O [Compound 24, 3-(2,5-dichlorophenyl)-1-methyl-dihydrouracil]",100,100,> 300,
"Cc1cccc(Cl)c1N1C(=O)CCN(C)C1=O [Compound 37, 3-(2-chloro-6-methylphenyl)-1-methyl-dihydrouracil]",,,,> 100
